Experimental data reported in ChEMBL document CHEMBL1201862, “PubChem BioAssay data set” (2004).
Calls of active or inactive are those of the source.

Columns and labels:
[1] = molecular target: Serine/threonine-protein phosphatase PP1-alpha catalytic subunit (Homo sapiens, UniProt P62136); assay: inhibition of protein phosphatase 1 activity – biochemical, fluorescence, dose response (AID 2403);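 note: phosphatase turnover of OMFP into fluorescent 3-O-methylfluorescein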
[2] = molecular target: T1, Serine/threonine-protein phosphatase (Homo sapiens, UniProt Q9BPW0); assay: Counterscreen for inhibitors of PP1: fluorescence-based biochemical high throughput dose response assay to identify inhibitors of Protein Phosphatase 5 (PP5). [Related pubchem assays: 2034 (Summary (PP5 inhibitors)), 1987 (PP5 inhibitors in singlate), 2235 (PP1 inhibitors in singlate)]
T1 sequence (Q9BPW0 whole entry): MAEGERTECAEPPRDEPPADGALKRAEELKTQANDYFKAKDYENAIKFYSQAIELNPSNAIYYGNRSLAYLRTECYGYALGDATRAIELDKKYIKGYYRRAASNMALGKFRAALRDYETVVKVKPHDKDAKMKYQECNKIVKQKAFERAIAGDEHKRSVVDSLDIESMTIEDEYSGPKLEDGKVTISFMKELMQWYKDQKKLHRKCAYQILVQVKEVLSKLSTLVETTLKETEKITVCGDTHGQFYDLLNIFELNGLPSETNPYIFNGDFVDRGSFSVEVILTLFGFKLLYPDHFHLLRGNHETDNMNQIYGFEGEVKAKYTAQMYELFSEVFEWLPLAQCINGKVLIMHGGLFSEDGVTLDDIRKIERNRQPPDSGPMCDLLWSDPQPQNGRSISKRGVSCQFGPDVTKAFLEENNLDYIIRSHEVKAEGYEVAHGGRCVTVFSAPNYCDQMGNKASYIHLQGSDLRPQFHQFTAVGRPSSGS

[3] = molecular target: Voltage-gated N-type calcium channel alpha-1B subunit/Amyloid beta A4 precursor protein-binding family A member 1 (Homo sapiens, UniProt Q00975+Q02410); assay: disruptors of Mint-PDZ/N-type channel peptide interaction – biochemical, HTRF, set 2, SAR follow-up (AID 434980); format: functional
Streptococcus = assay: GAS UMAA2166 growth inhibition – luminescence, BacTiterGlo, counter-screen for streptokinase expression inhibitor project, dose response (AID 1915); format: functional, organism-based;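 note: potency for reduction of bacterial viability or growth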
NS3 = NS3 (Hepatitis C virus, UniProt A3EZJ3); assay: PubChem AID 2173; parameters: species or system Hepacivirus hominis
[4] = test system: Streptococcus sp. 'group A'; assay: Streptococcus pyogenes SK(-)GAS viability under kanamycin – luminescence, BacTiterGlo, confirmation, counter-screen for streptokinase expression inhibitor project, dose response (AID 1900); format: functional, organism-based
Nonstructural protein 1 = Nonstructural protein 1 (Influenza A virus, UniProt Q194T2); format: functional, Influenza A virus (A/California/07/2009(H1N1))
Streptokinase A = molecular target: T2, Streptokinase A (Streptococcus pyogenes serotype M1, UniProt P10520); assay: viability-normalized secreted streptokinase activity reduction – plasminogen activation absorbance, OD405, dose response (AID 1914); format: functional, Streptococcus pyogenes M1 GAS;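 note: secreted streptokinase activity via plasminogen activation per viability signal from cell pellet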
T2 sequence (P10520 whole entry): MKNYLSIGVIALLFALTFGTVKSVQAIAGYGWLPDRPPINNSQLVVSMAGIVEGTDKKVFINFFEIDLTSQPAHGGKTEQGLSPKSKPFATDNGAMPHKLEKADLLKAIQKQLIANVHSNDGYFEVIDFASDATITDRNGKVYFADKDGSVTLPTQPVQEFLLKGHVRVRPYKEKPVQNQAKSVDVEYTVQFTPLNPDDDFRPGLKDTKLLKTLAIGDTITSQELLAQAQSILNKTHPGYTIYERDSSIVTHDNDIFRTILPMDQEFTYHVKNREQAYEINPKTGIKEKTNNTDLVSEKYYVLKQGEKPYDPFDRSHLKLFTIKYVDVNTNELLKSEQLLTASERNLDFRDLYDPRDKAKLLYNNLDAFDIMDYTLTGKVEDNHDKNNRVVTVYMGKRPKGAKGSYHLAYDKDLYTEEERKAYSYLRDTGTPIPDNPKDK

Aspartyl aminopeptidase = Aspartyl aminopeptidase (Plasmodium falciparum 3D7, UniProt Q8I2J3)
[5] = molecular target: T3, Rac GTPase-activating protein 1 (Homo sapiens, UniProt Q9H0H5); assay: blockers of MgcRacGAP-driven Rac1 GTP hydrolysis – biochemical, ADP Hunter fluorescence, primary and confirmatory, confirmation (AID 624330); format: functional
T3 sequence (Q9H0H5 whole entry): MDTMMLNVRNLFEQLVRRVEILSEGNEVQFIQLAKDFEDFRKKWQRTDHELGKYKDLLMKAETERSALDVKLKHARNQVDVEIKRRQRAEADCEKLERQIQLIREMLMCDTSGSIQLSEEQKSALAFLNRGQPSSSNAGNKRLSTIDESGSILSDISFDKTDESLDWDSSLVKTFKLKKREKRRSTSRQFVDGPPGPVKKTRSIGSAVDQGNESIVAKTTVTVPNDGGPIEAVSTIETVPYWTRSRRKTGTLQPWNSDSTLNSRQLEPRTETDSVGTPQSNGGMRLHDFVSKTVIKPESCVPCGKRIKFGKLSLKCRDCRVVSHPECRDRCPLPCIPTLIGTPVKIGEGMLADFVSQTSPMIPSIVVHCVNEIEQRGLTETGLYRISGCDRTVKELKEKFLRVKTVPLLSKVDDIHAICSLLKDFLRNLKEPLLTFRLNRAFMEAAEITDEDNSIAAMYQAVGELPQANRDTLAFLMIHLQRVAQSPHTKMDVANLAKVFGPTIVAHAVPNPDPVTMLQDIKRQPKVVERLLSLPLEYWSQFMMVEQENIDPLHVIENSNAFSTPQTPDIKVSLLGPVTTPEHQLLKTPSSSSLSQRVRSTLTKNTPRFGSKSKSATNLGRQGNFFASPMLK

Procathepsin L = Procathepsin L (Homo sapiens, UniProt P07711)
[6] = Trypanosoma cruzi growth suppression in host cells – NIH3T3 host cells, beta-gal luminescence, confirmation (AID 2044); format: functional, cell-based;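 note: intracellular parasites grown in NIH/3T3 mouse fibroblasts as host cells; luminescent beta-galactosidase reporter signal from transgenic T. cruzi replicating inside host cells; inhibitors lower the luminescence signal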
INS1 = assay: INS-1E survival protection against cytokine death – cell-based, luminescence, retest, dose response (AID 449756); format: functional; settings: Rattus norvegicus;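 note: cell death triggered by IL-1 beta plus TNF-alpha plus IFN-gamma mixture; protective hits raise ATP signal compared with cytokine alone wells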
[7] = NIH3T3 cell viability loss – ATP luminescence, mouse fibroblasts, counter-screen, dose response (AID 2010); format: functional, cell-based;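 note: cells exposed to compound for about 90 hours before reading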
Beta-galactosidase = Beta-galactosidase (Escherichia coli, UniProt Q8VNN2); assay: detection-enzyme interference by beta-gal modulators – biochemical, E. coli enzyme, set 3, artefact control for CCR6 antagonist project, dose response (AID 504712); format: functional
Chain of Beta-galactosidase (Q8VNN2 whole entry): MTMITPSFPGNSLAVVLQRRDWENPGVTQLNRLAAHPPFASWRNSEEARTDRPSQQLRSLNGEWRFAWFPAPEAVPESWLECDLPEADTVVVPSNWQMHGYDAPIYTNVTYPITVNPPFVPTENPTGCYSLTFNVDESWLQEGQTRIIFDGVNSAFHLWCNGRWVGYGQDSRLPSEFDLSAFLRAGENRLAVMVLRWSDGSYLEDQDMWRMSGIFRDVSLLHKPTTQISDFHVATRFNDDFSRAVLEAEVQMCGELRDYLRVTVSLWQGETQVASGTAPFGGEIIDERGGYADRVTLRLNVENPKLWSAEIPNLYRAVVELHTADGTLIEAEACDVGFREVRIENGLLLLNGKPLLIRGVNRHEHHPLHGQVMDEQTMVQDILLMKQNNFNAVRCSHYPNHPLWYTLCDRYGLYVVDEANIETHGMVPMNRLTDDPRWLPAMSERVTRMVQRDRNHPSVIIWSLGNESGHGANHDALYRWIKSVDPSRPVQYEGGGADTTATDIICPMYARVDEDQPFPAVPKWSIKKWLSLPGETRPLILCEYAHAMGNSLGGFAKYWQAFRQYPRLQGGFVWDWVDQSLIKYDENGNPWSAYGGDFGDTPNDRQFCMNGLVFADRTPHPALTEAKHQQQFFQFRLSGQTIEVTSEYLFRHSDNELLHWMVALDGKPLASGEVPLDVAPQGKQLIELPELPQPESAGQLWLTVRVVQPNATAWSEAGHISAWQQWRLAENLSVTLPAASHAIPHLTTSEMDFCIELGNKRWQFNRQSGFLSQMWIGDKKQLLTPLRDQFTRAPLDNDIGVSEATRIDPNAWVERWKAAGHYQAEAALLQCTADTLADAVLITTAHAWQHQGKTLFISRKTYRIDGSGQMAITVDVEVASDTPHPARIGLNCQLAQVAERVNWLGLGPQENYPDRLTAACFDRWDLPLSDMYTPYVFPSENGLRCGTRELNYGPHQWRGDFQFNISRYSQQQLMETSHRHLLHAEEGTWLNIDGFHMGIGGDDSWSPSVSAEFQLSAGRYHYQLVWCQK

Chain of Serine/threonine-protein phosphatase PP1-alpha catalytic subunit (P62136 whole entry): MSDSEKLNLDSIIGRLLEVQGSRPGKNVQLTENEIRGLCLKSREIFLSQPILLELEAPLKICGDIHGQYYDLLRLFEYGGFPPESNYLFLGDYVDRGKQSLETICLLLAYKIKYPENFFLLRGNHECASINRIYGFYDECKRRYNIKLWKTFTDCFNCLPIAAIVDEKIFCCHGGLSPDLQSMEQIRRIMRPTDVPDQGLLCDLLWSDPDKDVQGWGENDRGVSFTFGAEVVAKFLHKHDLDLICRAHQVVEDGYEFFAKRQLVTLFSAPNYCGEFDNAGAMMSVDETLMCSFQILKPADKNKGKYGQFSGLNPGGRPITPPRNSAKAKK
Chain of Aspartyl aminopeptidase (Q8I2J3 whole entry): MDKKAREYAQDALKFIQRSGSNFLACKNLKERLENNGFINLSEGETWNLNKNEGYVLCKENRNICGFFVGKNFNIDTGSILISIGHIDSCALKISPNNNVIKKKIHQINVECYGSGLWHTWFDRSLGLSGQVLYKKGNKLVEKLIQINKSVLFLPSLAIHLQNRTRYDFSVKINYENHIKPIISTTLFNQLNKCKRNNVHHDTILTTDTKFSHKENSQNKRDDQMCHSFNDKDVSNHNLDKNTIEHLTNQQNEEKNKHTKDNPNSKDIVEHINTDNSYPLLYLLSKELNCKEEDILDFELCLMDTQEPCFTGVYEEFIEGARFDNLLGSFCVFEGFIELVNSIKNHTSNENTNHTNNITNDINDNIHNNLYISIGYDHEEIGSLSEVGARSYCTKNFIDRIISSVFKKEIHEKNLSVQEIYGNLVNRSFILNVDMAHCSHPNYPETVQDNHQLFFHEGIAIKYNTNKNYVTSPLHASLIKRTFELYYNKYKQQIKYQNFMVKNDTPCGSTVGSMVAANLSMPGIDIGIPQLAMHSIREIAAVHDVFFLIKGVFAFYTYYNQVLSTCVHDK
Chain of Nonstructural protein 1 (Q194T2 whole entry): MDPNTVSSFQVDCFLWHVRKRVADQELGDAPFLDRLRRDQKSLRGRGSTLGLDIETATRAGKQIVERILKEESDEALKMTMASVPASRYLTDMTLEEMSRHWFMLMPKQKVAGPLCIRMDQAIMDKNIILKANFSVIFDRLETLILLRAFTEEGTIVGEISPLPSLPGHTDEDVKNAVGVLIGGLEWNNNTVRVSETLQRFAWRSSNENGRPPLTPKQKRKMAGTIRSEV
Chain of Procathepsin L (P07711 whole entry): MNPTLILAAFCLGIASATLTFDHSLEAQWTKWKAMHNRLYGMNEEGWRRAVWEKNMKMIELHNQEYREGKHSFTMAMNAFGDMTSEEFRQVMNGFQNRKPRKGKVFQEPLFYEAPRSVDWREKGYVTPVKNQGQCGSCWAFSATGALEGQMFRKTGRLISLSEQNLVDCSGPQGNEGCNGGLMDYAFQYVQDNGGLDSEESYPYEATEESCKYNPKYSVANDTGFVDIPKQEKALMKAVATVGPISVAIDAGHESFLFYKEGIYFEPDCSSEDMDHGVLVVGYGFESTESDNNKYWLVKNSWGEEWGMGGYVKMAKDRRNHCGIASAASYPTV
Chain of NS3 (A3EZJ3 whole entry): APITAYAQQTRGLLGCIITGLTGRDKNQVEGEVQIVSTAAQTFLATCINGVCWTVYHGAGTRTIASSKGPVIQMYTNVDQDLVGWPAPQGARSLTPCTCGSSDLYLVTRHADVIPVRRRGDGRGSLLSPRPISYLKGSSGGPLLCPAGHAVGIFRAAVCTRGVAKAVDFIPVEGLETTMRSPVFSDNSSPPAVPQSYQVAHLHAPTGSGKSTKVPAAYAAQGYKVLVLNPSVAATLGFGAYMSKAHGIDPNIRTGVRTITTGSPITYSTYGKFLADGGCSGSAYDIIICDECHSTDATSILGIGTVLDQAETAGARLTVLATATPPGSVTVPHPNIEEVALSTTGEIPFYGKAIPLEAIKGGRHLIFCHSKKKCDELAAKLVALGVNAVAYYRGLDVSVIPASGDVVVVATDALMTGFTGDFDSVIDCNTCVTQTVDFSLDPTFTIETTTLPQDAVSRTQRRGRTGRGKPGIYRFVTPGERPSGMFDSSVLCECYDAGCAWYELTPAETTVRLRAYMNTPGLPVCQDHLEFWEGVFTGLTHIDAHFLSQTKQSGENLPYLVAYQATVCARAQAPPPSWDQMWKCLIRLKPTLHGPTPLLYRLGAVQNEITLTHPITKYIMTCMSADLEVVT

## Clc1ccc(-n2nnnc2-c2cnc(-c3ccccn3)nc2-c2cccs2)cc1
[1]
  IC50: 4.64 µM (active)
[2]
  IC50: > 67 µM (not active)

## CC(C)(C)CCNC(=O)c1cc(-c2ccco2)nc2ccccc12
[3]
  IC50: > 56.8 µM (inactive)

## COc1ccc(/C=N\NC(=O)c2cc(O)c(O)c(O)c2)cc1COc1ccc(C(=O)OCC(C)C)cc1
Streptococcus
  EC50: 6.69 µM (active)
NS3
  IC50: 4.44 µM (active)
[4]
  EC50: 6.26 µM (active)
Nonstructural protein 1
  IC50: 78.6 µM (active)
Streptokinase A
  EC50: > 150 µM (not active)

## O=C(/C=C/c1ccc(O)c(O)c1)NC(=O)c1ccccc1O
Aspartyl aminopeptidase
  IC50: 1.47 µM (active)
[5]
  IC50: 20.2 µM (active)
Procathepsin L
  IC50: > 59.6 µM (not active)

## CCOC(=O)c1cnc(-n2nc(C)cc2C)nc1NC(C)c1ccccc1 (centres undefined)
Streptococcus
  EC50: 5.89 µM (active)
[4]
  EC50: 5.04 µM (active)
[1]
  IC50: 5.88 µM (active)
[6]
  EC50: 1.46 µM (active)
INS1
  AC50: 4.89 µM (active)
[2]
  IC50: > 67 µM (not active)
[7]
  EC50: > 60 µM (not active)

## COCC/N=c1\scc(-c2ccc3c(c2)NC(=O)CO3)n1/N=C(\C)c1ccc(O)cc1
Beta-galactosidase
  IC50: > 66.6 µM (inactive)
